Results taken from patent USRE33699E, “Growth hormone-releasing factor analogs” (International Minerals & Chemical Corp., priority 1990, dated 1991).
Square brackets hold non-standard residues; d marks the D form. Peptide text beside a SMILES is read from it. Nle = CCCC[C@H](N)C(=O)O

System: rat pituitary cells
Test: Bioassay of hGRF analogs: stimulation of growth hormone release in rat pituitary cells in tissue culture
Format: cell-based
Settings: for Potency: (ED50 of hGRF)/(Dose required to give same response as ED50 of hGRF)
Excerpt: The assay for biological activity, which is based on the ability to stimulate release of growth hormone in rat pituitary cells in tissue culture, has been described in detail (Culler, M. D.; Kenjo, T.: Obara, N.; Arimuar, A., Stimulation of cAMP. Accumulation by Human Pancreatic GH-Releasing Factor(1-44). Am. J. Physiol. 1984, 247 (Endocrinol.Metab. 10). E609-E615.
ALLFIT, the 4-parameter logistic curve fitting program available from the Biomedical Computer Technology Information Center, Vanderbilt Medical Center, Nashville Tenn., was used to determine ED50 and maximal stimulated values from the data. In several instances, the amount of GH released reached a maximum value and decreased with further increasing doses of the hGRF analogs. To simplify the data analysis, these values were not used in the calculations. The calculated maximal responses, the doses of the analog required to release the amount of GH released at the ED50 of the standard (hGRF) and the potencies of the analogs relative to hGRF, are given in Table 2. Generally all novel analogs were fully active and were able to stimulate the release of growth hormone with maximal values of GH release being within 80% of the value for natural hGRF.

CCCC[C@H](NC(=O)[C@@H](NC(=O)[C@H](CC(=O)O)NC(=O)[C@H](CCC(N)=O)NC(=O)[C@H](CC(C)C)NC(=O)[C@H](CC(C)C)NC(=O)[C@H](CCCCN)NC(=O)[C@H](CCCNC(=N)N)NC(=O)[C@H](C)NC(=O)[C@H](CO)NC(=O)[C@H](CC(C)C)NC(=O)[C@H](CCC(N)=O)NC(=O)CNC(=O)[C@H](CC(C)C)NC(=O)[C@@H](NC(=O)[C@H](CCCCN)NC(=O)[C@H](CCCNC(=N)N)NC(=O)[C@H](Cc1ccc(O)cc1)NC(=O)[C@H](CO)NC(=O)[C@H](CC(=O)O)NC(=O)[C@@H](NC(=O)[C@H](Cc1ccccc1)NC(=O)[C@@H](NC(=O)[C@H](C)NC(=O)[C@H](CC(N)=O)NC(=O)[C@H](C)NC(=O)[C@@H](N)Cc1ccc(O)cc1)[C@@H](C)CC)[C@@H](C)O)C(C)C)[C@@H](C)CC)C(=O)N[C@@H](CO)C(=O)N[C@@H](CCCNC(=N)N)C(=O)N[C@@H](CCC(N)=O)C(=O)N[C@@H](CCC(N)=O)C(N)=O [[Asn^3, Asp^8, Nle^27]-hGRF(1-31)--NH2, [Asn^3,Asp^8,Nle^27]-hGRF(1-31)--NH2] (H-YANAIFTDSYRKVLGQLSARKLLQDI[Nle]SRQQ-NH2)
Dose Needed to Release 2.01 μg/ml of GH (2.01 μg/ml = GH released at the ED50 of hGRF, from ALLFIT curves): 6.74 nM
Potency: 3%
Potency (Asp^8, Nle^27 ]): 5%
Relative Maximum Activity (% of hGRF) (from ALLFIT curves): 107 % of hGRF
